The record followed here is ChEMBL document CHEMBL5653615 (J Biol Chem, 2013).

Molecules are shown by their SMILES.

The target in assay [1] is Platelet-derived growth factor receptor beta (Homo sapiens) (UniProt P09619). The assay can be described thus: Inhibition of human PDGFRb at 18.6 nM by HotSpot assay relative to control.
The target of assay [2] is T1, Testis-specific serine/threonine-protein kinase 1 (Homo sapiens) (UniProt Q9BXA7).
T1 sequence (whole entry): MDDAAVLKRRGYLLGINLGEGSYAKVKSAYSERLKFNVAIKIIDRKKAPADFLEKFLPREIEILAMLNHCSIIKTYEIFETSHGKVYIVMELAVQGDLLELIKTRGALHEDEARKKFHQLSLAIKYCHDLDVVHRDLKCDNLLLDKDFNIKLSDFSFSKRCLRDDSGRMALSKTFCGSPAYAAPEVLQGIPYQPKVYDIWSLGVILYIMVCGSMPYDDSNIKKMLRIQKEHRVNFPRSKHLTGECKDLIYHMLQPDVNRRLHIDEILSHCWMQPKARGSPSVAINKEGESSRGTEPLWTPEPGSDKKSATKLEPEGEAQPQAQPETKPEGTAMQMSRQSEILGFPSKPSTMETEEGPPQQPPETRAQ
Put plainly: Inhibition of human TSSK1 at 18.6 nM by HotSpot assay relative to control.

Assay [3] addresses T2, Inhibitor of nuclear factor kappa-B kinase subunit epsilon (Homo sapiens) (UniProt Q14164).
T2 sequence (whole entry): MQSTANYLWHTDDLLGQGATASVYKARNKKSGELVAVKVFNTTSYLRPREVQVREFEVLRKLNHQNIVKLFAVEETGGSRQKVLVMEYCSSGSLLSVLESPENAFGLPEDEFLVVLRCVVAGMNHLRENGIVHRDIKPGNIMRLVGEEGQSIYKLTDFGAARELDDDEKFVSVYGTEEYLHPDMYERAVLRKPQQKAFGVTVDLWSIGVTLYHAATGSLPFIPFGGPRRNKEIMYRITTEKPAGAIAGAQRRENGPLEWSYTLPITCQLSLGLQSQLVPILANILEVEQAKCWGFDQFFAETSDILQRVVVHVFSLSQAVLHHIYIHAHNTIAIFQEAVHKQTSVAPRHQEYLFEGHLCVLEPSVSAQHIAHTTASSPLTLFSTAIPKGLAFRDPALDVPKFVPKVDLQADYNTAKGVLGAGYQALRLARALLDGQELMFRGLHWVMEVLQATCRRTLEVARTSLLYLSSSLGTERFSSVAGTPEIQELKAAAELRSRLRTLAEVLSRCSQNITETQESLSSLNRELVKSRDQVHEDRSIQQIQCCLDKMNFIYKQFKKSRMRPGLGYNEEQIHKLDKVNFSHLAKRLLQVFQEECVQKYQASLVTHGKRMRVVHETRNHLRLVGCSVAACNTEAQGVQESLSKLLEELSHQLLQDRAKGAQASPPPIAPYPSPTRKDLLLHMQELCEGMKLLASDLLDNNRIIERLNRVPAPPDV
Put plainly: Inhibition of human IKKe at 18.6 nM by HotSpot assay relative to control.

In assay [4] the target is Fibroblast growth factor receptor 1 (Homo sapiens) (UniProt P11362). The assay can be described thus: Inhibition of human FGFR1 at 18.6 nM by HotSpot assay relative to control.
The target of assay [5] is Serine/threonine-protein kinase PLK2 (Homo sapiens) (UniProt Q9NYY3). Put plainly: Inhibition of human PLK2 at 18.6 nM by HotSpot assay relative to control.
Assay [6] concerns the target Ephrin type-A receptor 5 (Homo sapiens) (UniProt P54756). Put plainly: Inhibition of human EPHA5 at 18.6 nM by HotSpot assay relative to control.
For assay [7], the target named is Tyrosine-protein kinase FRK (Homo sapiens) (UniProt P42685). The assay can be described thus: Inhibition of human FRK at 18.6 nM by HotSpot assay relative to control.
Assay [8] deals with Misshapen-like kinase 1 (Homo sapiens) (UniProt Q8N4C8). The assay can be described thus: Inhibition of human MINK1 at 18.6 nM by HotSpot assay relative to control.
Assay [9] addresses Serine/threonine-protein kinase Nek6 (Homo sapiens) (UniProt Q9HC98). Put plainly: Inhibition of human NEK6 at 18.6 nM by HotSpot assay relative to control.
In assay [10] the target is Serine/threonine-protein kinase Chk2 (Homo sapiens) (UniProt O96017). Put plainly: Inhibition of human CHK2 at 18.6 nM by HotSpot assay relative to control.
Assay [11] concerns the target T3, Serine/threonine-protein kinase BRSK1 (Homo sapiens) (UniProt Q8TDC3).
T3 sequence (whole entry): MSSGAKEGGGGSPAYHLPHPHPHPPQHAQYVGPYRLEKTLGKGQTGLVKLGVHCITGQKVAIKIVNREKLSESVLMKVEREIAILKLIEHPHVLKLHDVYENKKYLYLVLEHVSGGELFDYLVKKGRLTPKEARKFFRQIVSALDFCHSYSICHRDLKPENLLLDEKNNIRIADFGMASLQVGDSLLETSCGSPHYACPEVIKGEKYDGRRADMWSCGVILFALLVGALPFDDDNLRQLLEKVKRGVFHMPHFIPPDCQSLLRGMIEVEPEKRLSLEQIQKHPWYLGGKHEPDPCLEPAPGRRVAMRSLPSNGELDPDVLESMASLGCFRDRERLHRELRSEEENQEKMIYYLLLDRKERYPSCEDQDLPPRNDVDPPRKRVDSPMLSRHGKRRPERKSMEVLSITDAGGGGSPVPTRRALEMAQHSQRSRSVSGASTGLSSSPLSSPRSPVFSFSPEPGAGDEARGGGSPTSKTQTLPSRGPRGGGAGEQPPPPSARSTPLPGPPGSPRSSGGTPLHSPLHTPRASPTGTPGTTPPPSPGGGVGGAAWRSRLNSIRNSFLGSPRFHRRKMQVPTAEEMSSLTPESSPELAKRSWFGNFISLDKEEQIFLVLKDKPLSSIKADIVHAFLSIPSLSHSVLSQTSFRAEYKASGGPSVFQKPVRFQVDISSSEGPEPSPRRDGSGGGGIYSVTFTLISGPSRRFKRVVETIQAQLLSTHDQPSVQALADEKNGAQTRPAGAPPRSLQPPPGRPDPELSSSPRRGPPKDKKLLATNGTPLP
The assay can be described thus: Inhibition of human BRSK1 at 1.82 nM by HotSpot assay relative to control.

Assay [12] concerns the target Mitogen-activated protein kinase kinase kinase 10 (Homo sapiens) (UniProt Q02779). Put plainly: Inhibition of human MAP3K10 at 1.82 nM by HotSpot assay relative to control.
Assay [13] addresses Cyclin-dependent kinase 5/CDK5 activator 1 (Homo sapiens) (UniProt Q00535+Q15078). The assay can be described thus: Inhibition of human CDK5/p25 at 1.82 nM by HotSpot assay relative to control. Format: protein-complex assay.
In assay [14] the target is Serine/threonine-protein kinase MRCK beta (Homo sapiens) (UniProt Q9Y5S2). The assay can be described thus: Inhibition of human CDC42BPB at 1.82 nM by HotSpot assay relative to control.
In assay [15] the target is Tyrosine-protein kinase ABL2 (Homo sapiens) (UniProt P42684). Put plainly: Inhibition of human ABL2 at 1.82 nM by HotSpot assay relative to control.
For assay [16], the target named is Insulin receptor-related protein (Homo sapiens) (UniProt P14616). The assay can be described thus: Inhibition of human IRR at 1.82 nM by HotSpot assay relative to control.

Serine/threonine-protein kinase Nek6 (Homo sapiens), sequence (Q9HC98 whole entry): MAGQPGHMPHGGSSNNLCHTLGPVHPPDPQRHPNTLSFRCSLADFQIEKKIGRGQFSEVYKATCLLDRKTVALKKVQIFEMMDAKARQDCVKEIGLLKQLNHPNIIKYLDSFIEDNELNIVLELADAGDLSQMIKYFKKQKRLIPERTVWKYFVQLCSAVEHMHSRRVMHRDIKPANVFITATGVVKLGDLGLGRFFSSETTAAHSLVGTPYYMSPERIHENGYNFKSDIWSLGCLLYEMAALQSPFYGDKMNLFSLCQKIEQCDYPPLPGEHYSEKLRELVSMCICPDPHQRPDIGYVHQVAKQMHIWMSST
Cyclin-dependent kinase 5/CDK5 activator 1 (Homo sapiens), sequence (Q00535 whole entry): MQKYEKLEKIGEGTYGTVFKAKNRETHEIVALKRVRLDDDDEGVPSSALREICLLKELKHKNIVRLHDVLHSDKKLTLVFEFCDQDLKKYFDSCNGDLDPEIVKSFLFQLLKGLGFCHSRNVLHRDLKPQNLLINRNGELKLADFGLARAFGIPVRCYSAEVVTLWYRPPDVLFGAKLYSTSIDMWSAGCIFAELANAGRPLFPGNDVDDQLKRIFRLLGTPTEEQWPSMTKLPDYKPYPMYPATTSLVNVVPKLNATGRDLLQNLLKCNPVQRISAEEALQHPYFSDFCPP
Cyclin-dependent kinase 5/CDK5 activator 1 (Homo sapiens), sequence (Q15078 99-307 partner limits assumed): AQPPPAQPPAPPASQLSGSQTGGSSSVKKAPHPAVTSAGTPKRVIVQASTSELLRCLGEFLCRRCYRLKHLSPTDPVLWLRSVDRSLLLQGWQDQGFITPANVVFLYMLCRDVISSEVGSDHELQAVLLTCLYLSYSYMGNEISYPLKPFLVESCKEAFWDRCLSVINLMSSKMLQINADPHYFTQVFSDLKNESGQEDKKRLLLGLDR
Serine/threonine-protein kinase PLK2 (Homo sapiens), sequence (Q9NYY3 whole entry, looked up): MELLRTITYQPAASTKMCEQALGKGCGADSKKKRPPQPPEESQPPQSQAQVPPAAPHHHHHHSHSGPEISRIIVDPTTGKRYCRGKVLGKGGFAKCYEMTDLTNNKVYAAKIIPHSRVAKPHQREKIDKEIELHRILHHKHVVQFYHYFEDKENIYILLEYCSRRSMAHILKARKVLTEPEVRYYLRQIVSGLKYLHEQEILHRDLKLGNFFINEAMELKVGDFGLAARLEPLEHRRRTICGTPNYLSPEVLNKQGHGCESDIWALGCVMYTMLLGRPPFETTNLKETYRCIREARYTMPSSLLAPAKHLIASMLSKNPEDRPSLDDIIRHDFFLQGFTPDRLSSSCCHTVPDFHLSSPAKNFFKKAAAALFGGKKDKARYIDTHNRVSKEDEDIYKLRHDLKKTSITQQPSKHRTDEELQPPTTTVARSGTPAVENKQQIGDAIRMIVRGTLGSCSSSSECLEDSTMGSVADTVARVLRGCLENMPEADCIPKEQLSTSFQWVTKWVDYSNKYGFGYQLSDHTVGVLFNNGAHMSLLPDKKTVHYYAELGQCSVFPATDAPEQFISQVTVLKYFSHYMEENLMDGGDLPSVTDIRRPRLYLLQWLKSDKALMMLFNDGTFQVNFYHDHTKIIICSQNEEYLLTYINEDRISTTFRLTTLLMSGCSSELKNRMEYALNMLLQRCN
Tyrosine-protein kinase FRK (Homo sapiens), sequence (P42685 whole entry): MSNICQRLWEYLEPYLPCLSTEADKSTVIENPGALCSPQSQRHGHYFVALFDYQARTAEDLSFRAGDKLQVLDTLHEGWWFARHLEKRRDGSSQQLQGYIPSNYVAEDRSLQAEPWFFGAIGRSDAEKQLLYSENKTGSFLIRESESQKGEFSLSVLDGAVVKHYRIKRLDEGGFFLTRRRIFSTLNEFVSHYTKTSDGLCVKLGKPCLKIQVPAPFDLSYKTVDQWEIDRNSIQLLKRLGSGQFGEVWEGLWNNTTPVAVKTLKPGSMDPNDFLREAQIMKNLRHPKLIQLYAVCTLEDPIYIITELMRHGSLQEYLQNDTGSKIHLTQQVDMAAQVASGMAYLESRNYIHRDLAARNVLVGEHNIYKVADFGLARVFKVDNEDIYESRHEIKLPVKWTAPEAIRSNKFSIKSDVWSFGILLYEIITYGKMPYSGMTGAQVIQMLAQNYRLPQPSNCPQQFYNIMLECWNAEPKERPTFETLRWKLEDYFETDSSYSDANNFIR
Mitogen-activated protein kinase kinase kinase 10 (Homo sapiens), sequence (Q02779 whole entry, looked up): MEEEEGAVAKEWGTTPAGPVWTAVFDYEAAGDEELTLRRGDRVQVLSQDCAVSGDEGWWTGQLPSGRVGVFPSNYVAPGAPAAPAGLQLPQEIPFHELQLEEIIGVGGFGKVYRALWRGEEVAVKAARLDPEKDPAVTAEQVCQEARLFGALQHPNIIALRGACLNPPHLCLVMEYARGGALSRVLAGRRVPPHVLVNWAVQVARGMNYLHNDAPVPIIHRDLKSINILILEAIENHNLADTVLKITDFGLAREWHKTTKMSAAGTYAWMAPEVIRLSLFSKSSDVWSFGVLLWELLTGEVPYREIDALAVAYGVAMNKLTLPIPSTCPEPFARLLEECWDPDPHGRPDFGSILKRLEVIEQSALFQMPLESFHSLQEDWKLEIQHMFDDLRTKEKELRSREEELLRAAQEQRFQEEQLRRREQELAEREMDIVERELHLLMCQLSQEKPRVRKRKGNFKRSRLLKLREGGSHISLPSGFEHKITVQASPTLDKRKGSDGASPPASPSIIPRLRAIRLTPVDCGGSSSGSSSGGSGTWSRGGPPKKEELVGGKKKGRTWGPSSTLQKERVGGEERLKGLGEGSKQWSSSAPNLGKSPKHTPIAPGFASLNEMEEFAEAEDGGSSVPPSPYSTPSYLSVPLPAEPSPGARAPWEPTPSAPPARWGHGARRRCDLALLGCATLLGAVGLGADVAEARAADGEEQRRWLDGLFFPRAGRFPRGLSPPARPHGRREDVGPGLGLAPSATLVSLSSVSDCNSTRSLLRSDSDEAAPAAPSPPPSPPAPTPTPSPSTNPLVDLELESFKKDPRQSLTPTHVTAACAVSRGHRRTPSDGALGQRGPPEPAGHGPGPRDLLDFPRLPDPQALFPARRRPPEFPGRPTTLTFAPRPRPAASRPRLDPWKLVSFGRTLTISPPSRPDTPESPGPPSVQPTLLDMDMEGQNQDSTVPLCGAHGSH
Serine/threonine-protein kinase MRCK beta (Homo sapiens), sequence (Q9Y5S2 whole entry): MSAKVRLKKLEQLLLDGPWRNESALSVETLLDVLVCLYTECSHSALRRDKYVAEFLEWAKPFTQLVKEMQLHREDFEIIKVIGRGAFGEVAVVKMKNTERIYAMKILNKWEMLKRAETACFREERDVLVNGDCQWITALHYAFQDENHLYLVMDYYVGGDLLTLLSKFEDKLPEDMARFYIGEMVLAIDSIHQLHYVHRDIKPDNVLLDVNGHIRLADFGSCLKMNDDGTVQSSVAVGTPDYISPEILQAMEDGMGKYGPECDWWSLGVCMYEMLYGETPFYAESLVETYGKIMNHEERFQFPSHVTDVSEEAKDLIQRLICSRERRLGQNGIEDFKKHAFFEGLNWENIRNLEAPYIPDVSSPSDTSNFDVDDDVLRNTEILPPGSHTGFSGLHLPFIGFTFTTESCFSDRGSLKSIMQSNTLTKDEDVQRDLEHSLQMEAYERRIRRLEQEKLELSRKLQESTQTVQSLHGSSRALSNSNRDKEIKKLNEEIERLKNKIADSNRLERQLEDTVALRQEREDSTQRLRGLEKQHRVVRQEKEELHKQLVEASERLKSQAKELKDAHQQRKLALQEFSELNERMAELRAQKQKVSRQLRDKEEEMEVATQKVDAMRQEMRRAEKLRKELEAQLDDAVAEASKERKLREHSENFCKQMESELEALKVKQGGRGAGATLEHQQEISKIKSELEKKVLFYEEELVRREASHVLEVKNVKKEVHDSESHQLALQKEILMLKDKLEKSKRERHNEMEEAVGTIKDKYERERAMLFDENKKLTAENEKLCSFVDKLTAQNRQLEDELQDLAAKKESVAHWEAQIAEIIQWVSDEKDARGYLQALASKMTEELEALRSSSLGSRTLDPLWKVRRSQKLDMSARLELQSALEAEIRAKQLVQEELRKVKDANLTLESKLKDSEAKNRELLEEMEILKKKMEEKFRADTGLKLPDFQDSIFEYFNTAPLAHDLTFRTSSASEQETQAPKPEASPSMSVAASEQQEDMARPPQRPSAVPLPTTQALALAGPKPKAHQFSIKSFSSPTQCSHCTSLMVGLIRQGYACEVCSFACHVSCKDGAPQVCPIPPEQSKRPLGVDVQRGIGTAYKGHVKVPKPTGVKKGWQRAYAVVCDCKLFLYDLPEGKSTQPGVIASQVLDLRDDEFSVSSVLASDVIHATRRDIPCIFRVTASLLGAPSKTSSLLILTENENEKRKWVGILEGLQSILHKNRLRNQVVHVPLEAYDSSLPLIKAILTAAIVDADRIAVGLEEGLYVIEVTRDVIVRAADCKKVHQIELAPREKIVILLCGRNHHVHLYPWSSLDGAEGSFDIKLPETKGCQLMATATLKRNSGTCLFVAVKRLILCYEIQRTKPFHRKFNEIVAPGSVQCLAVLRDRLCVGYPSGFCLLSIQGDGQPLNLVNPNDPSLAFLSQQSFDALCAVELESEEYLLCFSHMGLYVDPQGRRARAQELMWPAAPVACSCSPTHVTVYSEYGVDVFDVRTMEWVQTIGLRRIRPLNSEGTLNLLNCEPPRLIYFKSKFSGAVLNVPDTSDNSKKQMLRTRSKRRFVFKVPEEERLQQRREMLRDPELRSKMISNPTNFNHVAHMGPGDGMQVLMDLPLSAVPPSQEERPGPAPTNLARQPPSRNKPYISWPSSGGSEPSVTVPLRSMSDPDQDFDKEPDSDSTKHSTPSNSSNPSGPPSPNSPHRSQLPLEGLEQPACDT

Regarding `C[C@]1(O)C[C@@H](c2nc(-c3ccc4ccc(-c5ccccc5)nc4c3)c3c(N)nccn32)C1`, the inhibition (as a rule, the change of the read-out against control, counted positive when it falls) in assay [1] was 8.57%; in assay [2] it was -3.16%; in assay [3], 3.19%; in [4], -8.13%; in assay [5], -0.58%; in [6], 0.67%. For the same compound, the inhibition in assay [7] is -0.1%; in assay [8] it was -2.76%; in assay [9], 14.9%; in assay [10] it was 0.83%.

On to `C[C@@]1(C(=O)Nc2ccc(F)nc2)CCCN1c1nc(Nc2cc(C3CC3)n[nH]2)c2cccn2n1`, for which the inhibition in assay [11] is -0.42%; in [12], -1.81%; in assay [13], 2.17%; in assay [14] it was -4.49%; in assay [15], -4.72%; in assay [16], 33.5%.
